Laboratory results: patent US5981517A, “Androstene derivatives” (priority 1997, dated 1999)

Key:
Stability in rat plasma = type: in vitro ADME; settings: rat plasma, 100 μM, 37° C.
Method: (§1) A Waters NOVA-PAK phenyl column was connected to a Spectra-Physics component system consisting of a SP 8810 precision isocratic pump, a Rheodyne 7125 injector (injection volume 20 μL), an SP 8450 UV/VIS variable wavelength detector (operated at 254 nm) and a SP 4270 integrator. […]. The retention times of compound of the invention J and its metabolities L and M were 8.64, 2.70 and 2.45 minutes, respectively. The retention times of compound of the invention I and its metabolites N and 0 were 5.84, 2.70 and 1.81 minutes, respectively. The retention time of cortienic acid was 1.00 minute.
(§2) Freshly collected human or rat plasma was used. An aliquot of 10 mM test compound in ethanol solution was added to prewarmed (37° C.) plasma to yield a final concentration of 100 μM. At appropriate time intervals, samples (0.1 mL) were removed and mixed with 0.2 mL of 5% dimethylsulfoxide/acetonitrile solution. Mixtures were centrifuged and supernatants were analyzed by HPLC. The pseudo-first order rate constant of the disappearance of compound in the biological media was determined by linear regression analysis from the plot of log peak area and peak height versus time.
(§3) Stability was evaluated by the pseudo first-order rate constant (k, hr^-1) and half-life (t1/2, hr) of the disappearance of the test compound in the media.

physchem = type: physicochemical
Method: (§4) A Whatman C-18 column (4.6 mm×108 mm) was connected to a Spectra-Physics component system consisting of a SP 8810 precision isocratic pump, Rheodyne 7125 injector (20 μL injection volume), SP 8450 UV/VIS variable wavelength detector (230 nm), and SP 4290 integrator. The system was operated at ambient temperature. The mobile phase consisted of acetonitrile, acetic acid and water (60:0.1:40). At a flow rate of 1.0 mL/minute, the retention times for the test compounds were 4.74 minutes for Compound A, 5.84 minutes for Compound B, 6.93 minutes for Compound C, and 5.72 minutes for Compound D.
(§5) HPLC peak area and peak height were used as a measure of the concentration of the test compounds and plotted against time to evaluate the disappearance rates of the compounds. The stability was determined by measuring the pseudo-first order rate constant (kobs in min^-1) or half-life (t1/2 in min) of disappearance of the test compound in buffer. […].
The stabilities of test compounds A, B, C, and D, were tested in buffer solutions in the pH range of 4.0 to 9.0. A 0.1 mL portion of each compound at a concentration of 1 mM was mixed with 10 mL phosphate buffer (made by combining 0.05 M of NaH2 PO4 and 0.05 M of Na2 HPO4 with 0.05 M of NaCl) to give a final concentration of 0.01 mM. The mixtures were incubated at 37° C., and samples were taken and injected in the HPLC system at appropriate time intervals. pH profiles of each test compound are shown in TABLE III below. […]

Stability in rat blood = type: in vitro ADME; settings: rat blood, 0.1 mM, 37° C.; read-out: Half-life (t1/2), Blood
Method: as §4, §5
(§6) A 0.2 mL aliquot of stock solution (1 mM) of each of the test compounds A, B, C, and D, was added to 2 mL of each biological media (whole heparinized rat blood, 20% rat liver homogenate, and 6-volume diluted lung homogenate in isotonic buffer of pH 7.40 made by combining 0.05 M of Na2 HPO4 and 0.05 M of NaH2 PO4 with 0.05 M of NaCl), which was kept in a 37° C. water bath, to obtain a final concentration of 0.1 mM in each biological medium. Samples of 0.1 mL were taken at appropriate time intervals for 2 hours (at 0, 3, 5, 10, 20, 40, 60, 90 and 120 minutes) and mixed with 0.2 mL of acetonitrile containing 5% DMSO. Each mixture was centrifuged and the supernatant was injected in the HPLC.

[1] = Stability in lung homogenate; type: in vitro ADME; settings: rat; 6-volume diluted lung homogenate, 0.1 mM, 37° C.; read-out: Half-life (t1/2), Lung
Method: as §4, §5, §6

[2] = Stability in liver homogenate; type: in vitro ADME, rat; settings: 20% rat liver homogenate, 0.1 mM, 37° C.; read-out: Half-life (t1/2), Liver
Method: as §4, §5, §6

[3] = Stability in human plasma; type: in vitro ADME; settings: human plasma, 100 μM, 37° C.
Method: as §1, §2, §3

[4] = system: forearm of a human volunteer; assay: Human vasoconstriction test; type: in vivo; parameters: key: 0 = normal skin, 4 = very intense pallor; settings: 10 mM

CCOC(=O)[C@@]1(OC(=O)C(Cl)Cl)CC[C@H]2[C@@H]3CCC4=CC(=O)C=C[C@]4(C)[C@H]3[C@@H](O)C[C@@]21C [Compound B, Ethyl 17α-dichloroacetoxy-11β-hydroxyandrosta-1,4-dien-3-one-17β-carboxylate]
k (pseudo first-order rate constant) (Stability in rat plasma): 0.136 h⁻¹ | half-life at 100 µM (Stability in rat plasma; read-out: t1/2 (converted)): 5.08 h | half-life (physchem; aqueous phosphate buffer, pH 4.5): > 48 h | half-life (physchem; aqueous phosphate buffer, pH 6.56): 16.7 h | half-life (physchem; aqueous phosphate buffer, pH 7.4): 5.08 h | half-life (physchem; aqueous phosphate buffer, pH 8.08): 0.867 h | half-life (physchem; aqueous phosphate buffer, pH 9): 0.144 h | half-life (physchem; buffer, pH 7.4): 5.08 h | half-life at 100 µM (Stability in rat blood): 1.29 h | half-life at 100 µM [1]: 2.29 h | half-life at 100 µM [2]: 0.313 h | k (pseudo first-order rate constant) [3]: 0.138 h⁻¹ | half-life at 100 µM ([3]; read-out: t1/2 (converted)): 5.03 h | Vasoconstriction activity ([4]; 1 hour after patch removal): 3 | Vasoconstriction activity ([4]; 8 hours after patch removal): 4 | Vasoconstriction activity ([4]; 17 hours after patch removal): 4 | Vasoconstriction activity ([4]; 24 hours after patch removal): 4
